Results: patent US7005430B2, “Fused purine derivatives” (Kyowa Hakko Kogyo Co., Ltd., priority 1999, dated 2006)
Counter-ions that a name gives are not always drawn.

Key:
MIN6 cell = assay: Insulin secretion promoting activity for cultured β cells (MIN6); assay type: cell-based; conditions: for secretion promoting action at a low glucose concentration (in words): MIN6 cells, glucose at a low concentration (5 mmol/L)
Method: Culture of the MIN6 cells above and insulin secretion test utilizing the MIN6 cells were performed according to the methods described in Diabetologia, vol. 36, pp. 1139–1145, 1993. The effect of a compound on the insulin secretion in the presence of 14.5 mmol/L glucose was determined by measuring insulin amounts in cell culture supernatants collected as follows. MIN6 cells cultured on a 24-well plate were washed twice by using 1 mL of Buffer A (119 mmol/L sodium chloride, 4.74 mmol/L potassium chloride, 2.54 mmol/L calcium chloride, 1.19 mmol/L magnesium sulfate, 1.19 mmol/L potassium dihydrogenphosphate, 10 mmol/L 2-[4-(2-hydroxyethyl)-1-piperazinyl]ethanesulfonic acid, 0.1% bovine serum albumin, pH 7.3) containing 2 mmol/L glucose, and then were incubated in 1 mL of Buffer A containing 2 mmol/L glucose at 37° C. for 45 minutes. After the incubation, the culture supernatant was changed to Buffer A (0.9 mL) containing a test compound at various concentrations and 2 mmol/L glucose, and the cells were further incubated at 37° C. for 15 minutes. The MIN6 cells were stimulated with glucose by the addition of Buffer A (0.1 mL) containing 127 mmol/L glucose to the culture (final glucose concentration: 14.5 mmol/L). After the stimulation, the cells were further incubated at 37° C. for 45 minutes, and then the culture supernatant was collected.
Separately, the effect of a compound on the insulin secretion in the presence of 5 mmol/L glucose was determined by measuring insulin amounts in cell culture supernatants collected as follows. MIN6 cells cultured on a 24-well plate were washed twice by using 1 mL of Buffer A containing 5 mmol/L glucose, and then the culture supernatant was changed to Buffer A (0.9 mL) containing a test compound at various concentrations and 5 mmol/L glucose. Then, the cells were incubated at 37° C. for 45 minutes (final glucose concentration: 5 mmol/L), and the culture supernatant was collected.
After the culture supernatant was diluted with a phosphate buffer containing 1% bovine serum albumin, 0.1% Tween 20, 0.12% disodium ethylenediaminetetraacetate (EDTA) and 0.1% sodium azide, antibody-reactive insulin secreted in the culture supernatant was quantified by enzyme immunoassay or radio immunoassay. The insulin level was indicated as the amount of human insulin (ng/mL). The results are indicated as averages (avg) for 3 to 4 samples with standard erroe values (se).

[1] = in the presence of 5 mmol/L of glucose, drug concentration 10 (mmol/L [sic]), None = 51.2
[2] = in the presence of 14.5 mmol/L of glucose, drug concentration 1.0 μmol/L, None = 148.4

melting point	SMILES	Insulin secretion amount (ng/ml) avg (MIN6 cell; [1])	Insulin secretion amount (ng/ml) avg (MIN6 cell; [2])	other results
–	CCCN1C(=O)N2C[C@@H](Cc3ccccc3)N=C2c2[nH]c(COCc3ccccc3)nc21.CCCN1C(=O)N2C[C@@H](Cc3ccccc3)N=C2c2[nH]c(COCc3ccccc3)nc21.O=C(O)/C=C/C(=O)O [Compound 56, (R)-8-Benzyl-2-benzyloxymethyl-7,8-dihydro-4-(n-propyl)-1H-imidazo[2,1-i]purin-5(4H)-one 0.5 fumarate]	56.2 ng/mL	189.0 ng/mL	–
–	CCCN1C(=O)N2C[C@@H](Cc3ccccc3)N=C2c2[nH]c(C3CCCO3)nc21 (stereo partly drawn) [Compound 51, (R)-8-Benzyl-7,8-dihydro-4-(n-propyl)-2-(tetrahydrofuran-2-yl)-1H-imidazo[2,1-i]purin-5(4H)-one D-tartrate]	79.2 ng/mL	180.8 ng/mL	–
–	O=C1N2CC(Cc3ccncc3)N=C2c2[nH]c(C3CCCC3)nc2N1CC1CC1 (stereo not drawn) [Compound 14, 2-Cyclopentyl-4-cyclopropylmethyl-7,8-dihydro-8-(4-picolyl)-1H-imidazo[2,1-i]purin-5(4H)-one dihydrochloride]	66.4 ng/mL	177.9 ng/mL	–
204 to 205 °C	CCCN1C(=O)N2C[C@@H](Cc3ccccc3)N=C2c2[nH]c(C3CCN(C(=O)OC(C)(C)C)CC3)nc21.Cl	–	–	–
–	CC(C)[C@H]1CC[C@H](C(=O)N[C@H](Cc2ccccc2)C(=O)O)CC1 [AY4166, reference compound]	170.8 ng/mL	–	secretion promoting action at a low glucose concentration (in words) (MIN6 cell): marked secretion promoting action; Insulin secretion amount (ng/ml) avg (MIN6 cell; in the presence of 14.5 mmol/L of glucose, drug concentration 10 μmol/L, None = 148.4): 195.1 ng/mL
–	CCCN1C(=O)N2C[C@@H](Cc3ccncc3)N=C2c2[nH]c(C3CCCCC3)nc21 [Compound 9, (R)-2-Cyclohexyl-7,8-dihydro-8-(4-picolyl)-4-(n-propyl)-1H-imidazo[2,1-i]purin-5(4H)-one]	74.0 ng/mL	197.6 ng/mL	–
–	CCCN1C(=O)N2C[C@@H](Cc3ccccc3)N=C2c2[nH]c(CSCC)nc21.CCCN1C(=O)N2C[C@@H](Cc3ccccc3)N=C2c2[nH]c(CSCC)nc21.O=C(O)/C=C/C(=O)O [Compound 64, (R)-8-Benzyl-2-ethylthiomethyl-7,8-dihydro-4-(n-propyl)-1H-imidazo[2,1-i]purin-5(4H)-one 0.5 fumarate]	61.2 ng/mL	204.9 ng/mL	–
–	CCCN1C(=O)N2CC(Cn3cccn3)N=C2c2[nH]c(C3CCCC3)nc21 (stereo not drawn) [Compound 21, 2-Cyclopentyl-7,8-dihydro-4-(n-propyl)-8-(1-pyrazolylmethyl)-1H-imidazo[2,1-i]purin-5(4H)-one]	74.8 ng/mL	182.1 ng/mL	–
280 °C (dec.)	Cl.O=C(O)CN1C(=O)N2C[C@@H](Cc3ccccc3)N=C2c2[nH]c(C3CCCC3)nc21	–	–	–
–	CCCN1C(=O)N2C[C@@H](Cc3ccncc3)N=C2c2[nH]c(C3CCC3)nc21 [Compound 10, (R)-2-Cyclobutyl-7,8-dihydro-8-(4-picolyl)-4-(n-propyl)-1H-imidazo[2,1-i]purin-5(4H)-one D-tartrate]	74.9 ng/mL	196.8 ng/mL	–
110 to 112 °C	CCCN1C(=O)N2C[C@@H](Cc3ccccc3)N=C2c2c1nc(SC)n2COC [Compound 36, (R)-8-Benzyl-7,8-dihydro-1-methoxymethyl-2-methylthio-4-(n-propyl)-1H-imidazo[2,1-i]purin-5(4H)-one]	–	–	–
112 to 113 °C	CCCN1C(=O)N2C[C@@H](Cc3ccccc3)N=C2c2c1nc(CCl)n2Cc1ccccc1 [Compound 42, (R)-1,8-Dibenzyl-2-chloromethyl-7,8-dihydro-4-(n-propyl)-1H-imidazo[2,1-i]purin-5(4H)-one]	–	–	–
–	CCCN1C(=O)N2CC(Cn3cccc3)N=C2c2[nH]c(C3CCCC3)nc21 (stereo not drawn) [Compound 24, 2-Cyclopentyl-7,8-dihydro-4-(n-propyl)-8-(1-pyrrolylmethyl)-1H-imidazo[2,1-i]purin-5(4H)-one]	71.8 ng/mL	200.0 ng/mL	–
–	COc1ccc(Cl)cc1C(=O)NCCc1ccc(S(=O)(=O)NC(=O)NC2CCCCC2)cc1 [Glibenclamide, reference compound]	–	–	secretion promoting action at a low glucose concentration (in words) (MIN6 cell): marked secretion promoting action; Insulin secretion amount (ng/ml) avg (MIN6 cell; in the presence of 5 mmol/L of glucose, drug concentration 0.1 (mmol/L [sic]), None = 51.2): 156.8 ng/mL; Insulin secretion amount (ng/ml) avg (MIN6 cell; in the presence of 14.5 mmol/L of glucose, drug concentration 0.1 μmol/L, None = 148.4): 177.8 ng/mL
274 to 276 °C	CCCN1C(=O)N2C[C@@H](Cc3ccccc3)N=C2c2[nH]c(CCC(=O)O)nc21	–	–	–
–	CC(C)(O)CCN1C(=O)N2C[C@@H](Cc3ccccc3)N=C2c2[nH]c(C3CCCC3)nc21 [Compound 85, (R)-8-Benzyl-2-cyclopentyl-7,8-dihydro-4-(3-hydroxy-3-methylbutyl)-1H-imidazo[2,1-i]purin-5(4H)-one hydrochloride]	53.6 ng/mL	197.1 ng/mL	–
–	CC(C)(O)CN1C(=O)N2C[C@@H](Cc3ccccc3)N=C2c2[nH]c(C3CCCC3)nc21 [Compound 81, (R)-8-Benzyl-2-cyclopentyl-7,8-dihydro-4-(2-hydroxy-2-methylpropyl)-1H-imidazo[2,1-i]purin-5(4H)-one hydrochloride]	83.1 ng/mL	195.4 ng/mL	–
184 to 185 °C	CCCN1C(=O)N2C[C@@H](Cc3ccccc3)N=C2c2c1nc(C=O)n2Cc1ccccc1 [Compound 41, (R)-1,8-Dibenzyl-2-formyl-7,8-dihydro-4-(n-propyl)-1H-imidazo[2,1-i]purin-5(4H)-one]	–	–	–
270 to 274 °C	CCCc1nc2c([nH]1)C1=NC(Cc3ccncc3)CN1C(=O)N2CCC (stereo not drawn) [Compound 8, 7,8-Dihydro-8-(4-picolyl)-2,4-dipropyl-1H-imidazo[2,1-i]purin-5(4H)-one]	–	–	–
200 to 206 °C	CCCN1C(=O)N2C[C@@H](Cc3ccccc3)N=C2c2c1nc(Br)n2Cc1ccccc1 [Compound 35, (R)-1,8-Dibenzyl-2-bromo-7,8-dihydro-4-(n-propyl)-1H-imidazo[2,1-i]purin-5(4H)-one]	–	–	–
–	CSCCCOC1=Nc2nc(C3CCCC3)[nH]c2C2=N[C@H](Cc3ccccc3)CN12 [Compound 71, (R)-8-Benzyl-2-cyclopentyl-7,8-dihydro-5-(3-methylthiopropyloxy)-1H-imidazo[2,1-i]purine]	107.7 ng/mL	211.0 ng/mL	–
–	CCCN1C(=O)N2C[C@@H](Cc3ccccc3)N=C2c2[nH]c(C3(O)CCCC3)nc21 [Compound 40, (R)-8-Benzyl-7,8-dihydro-2-(1-hydroxycyclopentyl)-4-(n-propyl)-1H-imidazo[2,1-i]purin-5(4H)-one]	56.7 ng/mL	191.2 ng/mL	–
293 to 295 °C	CCCN1C(=O)N2CC(Cc3ccncc3)N=C2c2[nH]c(C(C)(C)C)nc21 (stereo not drawn) [Compound 11, 2-(tert-Butyl)-7,8-dihydro-8-(4-picolyl)-4-(n-propyl)-1H-imidazo[2,1-i]purin-5(4H)-one]	–	–	–
–	CCCN1C(=O)N2C[C@@H](Cc3ccccc3)N=C2c2[nH]c(COCC)nc21.CCCN1C(=O)N2C[C@@H](Cc3ccccc3)N=C2c2[nH]c(COCC)nc21.O=C(O)/C=C/C(=O)O [Compound 45, (R)-8-Benzyl-2-ethoxymethyl-7,8-dihydro-4-(n-propyl)-1H-imidazo[2,1-i]purin-5(4H)-one 0.5 fumarate]	69.9 ng/mL	178.8 ng/mL	–
165 to 167 °C	Cl.O=C1N2C[C@@H](Cc3ccc(F)cc3)N=C2c2[nH]c(C3CCCC3)nc2N1CCO	–	–	–
187 to 188 °C	CCCN1C(=O)N2C[C@@H](Cc3ccccc3)N=C2c2[nH]c(C3(O)CCCC3)nc21 (as salt: salt) [Compound 40, (R)-8-Benzyl-7,8-dihydro-2-(1-hydroxycyclopentyl)-4-(n-propyl)-1H-imidazo[2,1-i]purin-5(4H)-one]	–	–	–

SMILES	melting point	Insulin secretion amount (ng/ml) avg (MIN6 cell; [1])	Insulin secretion amount (ng/ml) avg (MIN6 cell; [2])	other results
O=C1N2CC(Cc3ccncc3)N=C2c2[nH]c(C3CCCC3)nc2N1CC1CC1 (stereo not drawn) (as salt: hydrochloride) [Compound 14, 2-Cyclopentyl-4-cyclopropylmethyl-7,8-dihydro-8-(4-picolyl)-1H-imidazo[2,1-i]purin-5(4H)-one dihydrochloride]	240 to 241 °C	–	–	–
CCCN1C(=O)N2CC(Cc3ccccc3)CN=C2c2[nH]c(COCC)nc21.O=C(O)/C=C/C(=O)O (stereo not drawn)	152 to 157 °C	–	–	–
